In PMC4743981, “Immunomodulatory and Anti-Inflammatory Activities of Chicken Cathelicidin-2 Derived Peptides” (PLoS ONE, 2016):
Like-named read-outs stand apart in the source and are kept apart here. Ends that are not written are not given here.

How the values were obtained:
[1] = test system: Avian pathogenic Escherichia coli O78; assay type: cell-based; settings: Avian pathogenic O78, 3 h
Method: Avian pathogenic Escherichia coli O78 (field isolate, Zoetis, Kalamazoo, MI) was cultured in Mueller-Hinton broth at 37°C. Overnight grown cultures were diluted to a density of 2×10^6 CFU/ml in Mueller-Hinton broth (non cation-adjusted, Oxoid Ltd., Hampshire, UK) and mixed in a 96 wells polypropylene microwell plate at a 1:1 ratio with peptide (final concentration: 1.25 to 40 μM). After 3 h incubation samples were serially diluted in medium, plated on trypton soy agar (Oxoid Ltd., Hampshire, UK) media and counted after 24 h incubation at 37°C.

[2] = test system: NO production by HD11 cells; assay: Peptide-induced nitric oxide production by HD11 cells (Griess); assay type: cell-based, chicken; settings: 24 h exposure to 20 μM peptide without LPS, data not shown
Method: HD11 cells were a kind gift of dr. Jos van Putten (department of Infectious diseases and Immunology, Utrecht University, The Netherlands). HD11 cells were seeded in 96 wells tissue culture treated plates (1×10^5 cell/mL) and incubated for 18 h at 37°C (5% CO2) before treatment. For peptide-induced effects cells were treated with RPMI-1640 medium containing 20 μM peptide during 4 h or 24 h. In LPS neutralization experiments, final concentrations of 50–100 ng/ml LPS were pre-incubated with or without 20 μM peptide for 30 min at 37°C (5% CO2), applied to the cells and incubated for 4 h. […] RNA quantity and purity were tested using a Nanodrop ND-1000 spectrophometer (Nanodrop Technologies, Wilmington, DE). Cytotoxicity of peptides was determined using the cell viability reagent WST-1 (Roche) as described previously, and by measuring LDH release after 24 h exposure. LDH activities in supernatant cell fractions were measured using the Cytoxicity Detection Kit PLUS (Roche) according the manufacturers recommendations and expressed as the % of released LDH relative to the total LDH activity.
Nitric oxide production was assessed as the accumulation of nitrite (NO2^−) in cell supernatants during a 24 h incubation period. Nitrite concentrations were determined using a colorimetric reaction with the Griess reagent using (from 1 to 50 μM) sodium nitrite dissolved in water as standards. […]

[3] = test system: MCP-3; assay: Peptide-induced MCP-3 transcription in HD11 cells (real time PCR); assay type: cell-based, chicken; settings: 1 to 20 μM peptide, 4 h or 24 h, real time QPCR
Method: (§1) HD11 cells were a kind gift of dr. Jos van Putten (department of Infectious diseases and Immunology, Utrecht University, The Netherlands). HD11 cells were seeded in 96 wells tissue culture treated plates (1×10^5 cell/mL) and incubated for 18 h at 37°C (5% CO2) before treatment. For peptide-induced effects cells were treated with RPMI-1640 medium containing 20 μM peptide during 4 h or 24 h. In LPS neutralization experiments, final concentrations of 50–100 ng/ml LPS were pre-incubated with or without 20 μM peptide for 30 min at 37°C (5% CO2), applied to the cells and incubated for 4 h. To examine neutralization of LPS-primed cells HD11 cells were exposed for 30 min to 100–1000 ng/ml S. minnesota LPS, washed once and incubated during 4 h in the absence or presence of 20 μM Peptide. Supernatants were collected for the determination of nitric oxide production (24 h incubations only). […] RNA quantity and purity were tested using a Nanodrop ND-1000 spectrophometer (Nanodrop Technologies, Wilmington, DE). Cytotoxicity of peptides was determined using the cell viability reagent WST-1 (Roche) as described previously, and by measuring LDH release after 24 h exposure. LDH activities in supernatant cell fractions were measured using the Cytoxicity Detection Kit PLUS (Roche) according the manufacturers recommendations and expressed as the % of released LDH relative to the total LDH activity. […]

[4] = molecular target: S. minnesota LPS; assay: LPS binding affinity, dansyl-polymyxin B displacement; parameters: species or system Salmonella minnesota; settings: concentration of peptide needed to displace 50% of Dansyl-labeled polymyxin from S. minnesota LPS micelles, unsubstituted (Phe) peptide, read-out: I50 (Phe)
Method: Dansyl-polymyxin B was prepared and quantitated as described by Schindler and Teuber. Subsequently, the capacity of peptides to displace dansyl-labeled polymyxin B complexed to S. minnesota LPS was determined according to Moore et al..

[5] = test system: CXCLi2/IL-8; assay: Peptide-induced CXCLi2 transcription in HD11 cells (real time PCR); assay type: cell-based, chicken; settings: 1 to 20 μM peptide, 4 h or 24 h, real time QPCR
Method: as §1

[6] = test system: IL-1β transcription in LPS-primed HD11 cells; assay: Neutralization of IL-1β transcription in LPS-primed HD11 cells; assay type: cell-based, chicken; settings: HD11 cells primed 30 min with S. minnesota LPS (100–1000 ng/ml), washed once, 4 h with 20 μM peptide; real time QPCR
Method: as §1

| Compound | MIC [1] [µM] | other results |
| --- | --- | --- |
| FLRKIRRFRPKVTITIQ-NH2 [C(5–21)] | 8.3 ± 5.8 |  |
| RFGRFLRKIRRFRPKVTITIQ-NH2 [C(1–21)] | 13.3 ± 5.8 |  |
| RKIRRYRPKVTITIQ-NH2 [C(7–21)Y] | 11.7 ± 7.6 |  |
| RKIRRFRPKVTITIQ-NH2 [C(7–21)] | 8.3 ± 2.9 |  |
| RFGRFLRKIRRFRPK [C(1–15)] | 16.7 ± 5.8 |  |
| RRYRPKVTITIQ-NH2 [C(10–21)Y] | 16.7 ± 5.8 |  |
| KIRRFRPKVTITIQ-NH2 [C(8–21)] | 11.7 ± 7.6 |  |
| CC[C@H](C)[C@H](NC(=O)[C@H](CCCCN)NC(=O)[C@H](CCC(=O)O)NC(=O)[C@H](CCCCN)NC(=O)[C@H](CO)NC(=O)[C@H](CCCCN)NC(=O)[C@H](CCCNC(=N)N)NC(=O)[C@H](Cc1ccccc1)NC(=O)[C@H](Cc1ccccc1)NC(=O)[C@H](CC(=O)O)NC(=O)CNC(=O)[C@H](CC(C)C)NC(=O)[C@@H](N)CC(C)C)C(=O)NCC(=O)N[C@@H](CCCCN)C(=O)N[C@@H](CCC(=O)O)C(=O)N[C@@H](Cc1ccccc1)C(=O)N[C@@H](CCCCN)C(=O)N[C@@H](CCCNC(=N)N)C(=O)N[C@H](C(=O)N[C@H](C(=O)N[C@@H](CCC(N)=O)C(=O)N[C@@H](CCCNC(=N)N)C(=O)N[C@H](C(=O)N[C@@H](CCCCN)C(=O)N[C@@H](CC(=O)O)C(=O)N[C@@H](Cc1ccccc1)C(=O)N[C@@H](CC(C)C)C(=O)N[C@@H](CCCNC(=N)N)C(=O)N[C@@H](CC(N)=O)C(=O)N[C@@H](CC(C)C)C(=O)N[C@H](C(=O)N1CCC[C@H]1C(=O)N[C@@H](CCCNC(=N)N)C(=O)N[C@H](C(=O)N[C@@H](CCC(=O)O)C(=O)N[C@@H](CO)C(=O)O)[C@@H](C)O)C(C)C)[C@@H](C)CC)C(C)C)[C@@H](C)CC [LL37] |  | increase of NO levels [2]: 2 fold; induction of MCP-3 transcription (in words) [3]: inducing the transcription; IC50 [4]: 0.28 ± 0.04 µM; induction of CXCLi2 transcription (in words) [5]: inducing the transcription; inhibition of IL-1β transcription induced by LPS priming (in words) [6]: strongly inhibited |
| RWLRKIRRWRPKVTITIQ-NH2 [C(4–21)W2] | 8.3 ± 2.9 |  |
| RFGRFLRKIRRFRPKVTITIQGSARF-NH2 [CATH-2] | 5.0 ± 0.0 |  |
| RYGRYLRKIRRYRPKVTITIQ-NH2 [C(1–21)Y3] | 10.0 ± 0.0 |  |
| RYLRKIRRYRPKVTITIQ-NH2 [C(4–21)Y2] | 10.0 ± 0.0 |  |
| Polymyxin B |  | IC50 ([4]; listed as polymyxin B): 4.19 µM; IC50 [4]: 3.46 ± 0.17 µM |
| RWGRWLRKIRRWRPKVTITIQ-NH2 [C(1–21)W3] | 13.3 ± 5.8 |  |
| RFRPKVTITIQ-NH2 [C(11–21)] | 8.3 ± 2.9 |  |
| RKIRRWRPKVTITIQ-NH2 [C(7–21)W] | 13.3 ± 5.8 |  |
| IRRFRPKVTITIQ-NH2 [C(9–21)] | 8.3 ± 2.9 |  |
| RRWRPKVTITIQ-NH2 [C(10–21)W] | 11.7 ± 7.6 |  |
| RRFRPKVTITIQ-NH2 [C(10–21)] | 6.7 ± 2.9 |  |
| RFLRKIRRFRPKVTITIQ-NH2 [C(4–21)] | 6.7 ± 2.9 |  |
